Data published in patent US20240050385A1, “METHODS OF TREATING LEPTOMENINGEAL METASTASIS” (MEMORIAL SLOAN-KETTERING CANCER CENTER, priority 2020, published 2024).
Entries after “also recorded” stand apart in the source; their conditions may differ. Counter-ions that a name gives are not always drawn.

Legend:
PC9-LeptoM cells = experiment: In vivo leptomeningeal metastasis assay, PC9-LeptoM model, intracisternal chelator treatment; set-up: species or system mouse; details: for Median Survival: every 3 days; for [Fe]: total iron in CSF
Text: (§1) FIG. 16A-16L. Iron chelator treatment reduces CSF iron. (A) Experimental scheme. Mice were inoculated with 2×10^3 cells intrathecally on day 0. Treatment with either vehicle, DFO, or D-pen was commenced on either day 1 or day 7 and continued every third day for a total of 7 doses. (B) Chelators delivered intrathecally. DFO, Deferoxamine. D-Pen, D-Penicillamine. (C-F) Intracellular iron (C and E) and viability (D and F) of PC9-LeptoM cells and MDA231-LeptoM cells after treatment with chelators in different concentrations (0 μM, 1 μM, 10 μM and 100 μM). n=3-4 per group in each of two independent experiments. * indicates p<0.05, ** indicates p<0.01, ***indicates p<0.001, **** indicates p<0.0001 (unpaired t test). Data represent mean±SEM. (G) Growth of PC9-LeptoM tumor after treatment indicated in (A). Left: in vivo BLI imaging in day 28 post-inoculation. n=8-10 per group in each of two independent experiments. Right: Representative BLI images. **** indicates p<0.0001. Data represent mean±SEM. (H) Kaplan-Meier survival curve from (C) and (E). p<0.0001. (I and J) Total iron concentration measured in CSF samples of mice with treatment of chelators in PC9-LeptoM Model (I) in MDA231-LeptoM model (J). NS=not significant, * indicates p<0.05, ** indicates p<0.01 (unpaired t test). Data represent mean±SEM. (K and L) Immune cell composition in CSF of LLC-LeptoM model with the treatment of vehicle, DFO, or D-pen at day 10. n=6 per group. NS=not significant, * indicates p<0.05, ** indicates p<0.01 (unpaired t test). Data represent mean±SEM.
In vivo leptomeningeal metastasis assays. To model leptomeningeal metastasis with a known consistent disease burden, 2×10^3 PC9, 2×10^3 MDA231, or 1×10^3 LLC Parental or LeptoM cells suspended in 10 μl PBS were injected into the cisterna magna of anesthetized mice. This procedure was tolerated well by the mice. Tumor progression was monitored by bioluminescence imaging (BLI) every 7 days after tumor cell inoculation, and mouse condition was monitored daily. When the tumor cells encompassed the entire CNS, or when neurological impairment became apparent, CSF was collected as described above, and mice were euthanized. Brains and spinal cord were collected in tissue fixative and embedded for preservation or histological and morphometric analysis. The role of LCN2 in cancer progression at multiple metastatic sites was also assessed. Tumor burden was monitored and quantified non-invasively after tumor cell inoculation either by BLI signal using the IVIS Spectrum Xenogen (Caliper Life Sciences) machine or with calibrated digital caliper. To track cancer cell growth after hematogenous dissemination, 5×10^4 PC9-LeptoM cells (shCtl, shLCN2-1 and shLCN2-2) suspended in 50 μL PBS were injected into the left heart ventricle. Tumor burden was monitored every 3 days with BLI. To measure cancer cell growth in the lungs, 2.5×10^4 PC9-LeptoM cells (diluted 1:1 in Growth factor-reduced Matrigel, #354230) were injected into the left lung through the rib cage. Tumor burden was monitored every 3 days with BLI. To assess cancer cell growth after subcutaneous inoculation, 1×10^6 PC9-LeptoM cells (diluted 1:1 in growth factor-reduced Matrigel) were injected under the flank skin of the mouse, and tumor burden was monitored every 3 days with calibrated digital caliper. To introduce cells into the mammary fat pad, 5×10^4 MDA-231-LeptoM cells (diluted 1:1 in growth factor-reduced Matrigel) were injected into the fourth inguinal mammary fat pad; tumor burden was measured every 3 days with calibrated digital caliper. To test a hypoxic environment other than the leptomeninges, 5×10^6 cells, diluted in 200 uL PBS, were injected intraperitoneally. Tumor burden was monitored 7 days after inoculation by BLI. Exact numbers for each experimental series are included in the relevant Figure legends.
Mouse CSF collection and Intrathecal drug administration. […]

LeptoM cells [1] = experiment: Iron Assay, chelation assay in vitro (intracellular iron); type: cell-based, human; details: PC9-LeptoM and MDA231-LeptoM cells; 0, 1, 10, 100 μM; in words
Text: as §1, with “NS=not significant, * indicates p<0.05, ** indicates p<0.01 (unpaired t test). Data represent mean±SEM. (K and L) Immune cell composition in CSF of LLC-LeptoM model with the treatment of vehicle, DFO, or D-pen at day 10. n=6 per group. NS=not significant, * indicates p<0.05, ** indicates p<0.01 (unpaired t test). Data represent mean±SEM.” left out
Iron Assay. […] The Iron Assay Kit (Sigma-Aldrich, MAK025) was used to quantify total iron in the intracellular contents and culture supernatant following the manufacturer's protocols. […]

LeptoM cells [2] = experiment: Cell Viability Assay / growth after chelator treatment; type: cell-based, human; details: PC9-LeptoM and MDA231-LeptoM; in words
Text: as §1, with “NS=not significant, * indicates p<0.05, ** indicates p<0.01 (unpaired t test). Data represent mean±SEM. (K and L) Immune cell composition in CSF of LLC-LeptoM model with the treatment of vehicle, DFO, or D-pen at day 10. n=6 per group. NS=not significant, * indicates p<0.05, ** indicates p<0.01 (unpaired t test). Data represent mean±SEM.” left out
Cell Viability Assay. […] The CellTiter-Glo Luminescent Cell Viability Assay (Promega G9241) was used to quantify viable cells in culture according to the manufacturer's protocols. […]

Row | SMILES | Median Survival (PC9-LeptoM cells; PC9-LeptoM model, intracisternal, start day not given) [days] | [Fe] (PC9-LeptoM cells; PC9-LeptoM model, start day not given) [µM] | iron levels within the LeptoM cells (LeptoM cells [1]) | growth of the LeptoM cells (LeptoM cells [2]) | iron concentration in the CSF compared to control mice (PC9-LeptoM cells; PC9-LeptoM model, day 28, in words) | [Fe] (PC9-LeptoM cells; PC9-LeptoM model, late (day 7)) [µM] | Median Survival (PC9-LeptoM cells; PC9-LeptoM model, treatment begun late (day 7)) [days] | dissemination of cancer cells over the spinal cord (PC9-LeptoM cells; PC9 mouse model, both early and late treatment groups, in words) | survival compared with vehicle control (PC9-LeptoM cells; PC9 mouse model, in words)
1 | CC(C)(S)[C@@H](N)C(=O)O [D-Pen, D-penicillamine] | 31.5 ± 3.5 | 15.13 ± 4.21 | – | – | – | – | – | – | –
2 | CC(=O)N(O)CCCCCNC(=O)CCC(=O)N(O)CCCCCNC(=O)CCC(=O)N(O)CCCCCN [DFO, Deferoxamine mesylate] | – | – | substantially suppressed; also recorded: dramatically suppressed | substantially suppressed; also recorded: dramatically suppressed | profoundly decreased; also recorded: reduced CSF iron concentration to that of non-LeptoM control mice | 4.74 ± 0.38 | 40 ± 5 | impaired dissemination | conferred a survival benefit; also recorded: significant survival benefit
